Measurements taken from US20250230147A1, “LACTAMS AS CBL-B INHIBITORS” (Genentech, Inc., priority 2021, published 2025).
Structures can show the parent of a compound that is named as a salt.

What was measured:
Cbl-b = Cbl-b (Homo sapiens (Human), UniProt Q13191); experiment: Cbl-b LCK Ub TR-FRET assay (Cbl-b Lck HTRF); type: biochemical
Procedure, shortened: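 TR-FRET (340 nm excitation, 615/665 nm emission) read after adding HA-ubiquitin–UBE2D2 thioester, anti-HA-D2 and streptavidin-Eu. Beforehand, compounds incubated 60 min with biotinylated Cbl-b, then 90 min with His-LCK and ATP (1 mM in 2× mix); IC50 from 10 concentrations, DMSO high and no-LCK low controls.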

c-Cbl = c-Cbl (Homo sapiens (Human), UniProt P22681); experiment: C-Cbl LCK Ub TR-FRET assay (c-cbl Lck HTRF); type: biochemical; details: for (fold-selectivity): C-cbl Lck HTRF IC50 relative to Cbl-b Lck HTRF IC50
Procedure, shortened: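 Signal is read once the detection mix has stood 20 min at ambient temperature. Curves are anchored by DMSO as maximum and by omission of LCK as minimum.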

Chain of Cbl-b (Q13191 40-426): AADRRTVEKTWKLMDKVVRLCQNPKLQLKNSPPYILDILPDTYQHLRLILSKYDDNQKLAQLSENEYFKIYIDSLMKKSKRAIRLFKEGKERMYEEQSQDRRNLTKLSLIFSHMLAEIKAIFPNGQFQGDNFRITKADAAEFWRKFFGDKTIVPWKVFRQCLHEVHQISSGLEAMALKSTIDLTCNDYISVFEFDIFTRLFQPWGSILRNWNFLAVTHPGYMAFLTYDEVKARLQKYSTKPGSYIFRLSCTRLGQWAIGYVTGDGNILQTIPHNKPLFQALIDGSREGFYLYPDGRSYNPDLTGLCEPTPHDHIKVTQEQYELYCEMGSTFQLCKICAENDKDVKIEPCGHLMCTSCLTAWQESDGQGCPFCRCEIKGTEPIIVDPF
Chain of c-Cbl (P22681 47-435): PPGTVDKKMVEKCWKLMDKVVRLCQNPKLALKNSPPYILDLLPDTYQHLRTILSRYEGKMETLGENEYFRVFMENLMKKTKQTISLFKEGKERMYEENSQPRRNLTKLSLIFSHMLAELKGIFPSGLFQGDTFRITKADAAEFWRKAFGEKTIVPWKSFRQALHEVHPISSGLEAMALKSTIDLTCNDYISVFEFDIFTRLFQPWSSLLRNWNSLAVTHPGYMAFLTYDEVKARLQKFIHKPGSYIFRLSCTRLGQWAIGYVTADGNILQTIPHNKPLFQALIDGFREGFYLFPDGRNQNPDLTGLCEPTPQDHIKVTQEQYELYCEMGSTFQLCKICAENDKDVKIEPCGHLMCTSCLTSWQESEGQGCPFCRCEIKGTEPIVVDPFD

Structure (SMILES) | IC50 (Cbl-b) | IC50 (c-Cbl) | (fold-selectivity) (c-Cbl)
CC(C)[C@H]1CN(C)CCN1Cc1cc(Cl)c2c(c1)C(=O)N(c1cccc(C3(Cc4nncn4C)CC(F)(F)C3)c1)C2 [Compound 281, (S)-4-chloro-2-(3-(3,3-difluoro-1-((4-methyl-4H-1,2,4-triazol-3-yl)methyl)cyclobutyl)phenyl)-6-((2-isopropyl-4-methylpiperazin-1-yl)methyl)isoindolin-1-one] | 16 nM | 11 nM | (0.68x)
Cn1cnnc1CC1(c2cccc(N3Cc4c(cc([C@H](N)C5CC5)cc4C(F)(F)F)C3=O)c2)CC(F)(F)C1 [Compound 435, (R)-6-(amino(cyclopropyl)methyl)-2-(3-(3,3-difluoro-1-((4-methyl-4H-1,2,4-triazol-3-yl)methyl)cyclobutyl)phenyl)-4-(trifluoromethyl)isoindolin-1-one] | 19 nM | 19 nM | (1.0x)
CCC1(NCc2cc3c(c(C(F)(F)F)c2)CN(c2cccc(C4(Cc5nncn5C)CC(F)(F)C4)c2)C3=O)CCC1 [Compound 369, 2-(3-(3,3-difluoro-1-((4-methyl-4H-1,2,4-triazol-3-yl)methyl)cyclobutyl)phenyl)-6-(((1-ethylcyclobutyl)amino)methyl)-4-(trifluoromethyl)isoindolin-1-one formate] | 17 nM | 15 nM | 
Cn1cnnc1CC1(c2cccc(N3Cc4c(cc(C5CCNC5)cc4C(F)(F)F)C3=O)c2)COC1.O=CO (racemic) [Compound 50, (±)-2-(3-(3-((4-methyl-4H-1,2,4-triazol-3-yl)methyl)oxetan-3-yl)phenyl)-6-(pyrrolidin-3-yl)-4-(trifluoromethyl)isoindolin-1-one formate] | 54 nM | 90 nM | 1.7x
Cn1cnnc1[C@H](F)C1(c2cccc(N3Cc4c(cc(CN5CC(C)(O)C5)cc4C(F)(F)F)C3=O)c2)COC1 [Compound 161, (R)-2-(3-(3-(fluoro(4-methyl-4H-1,2,4-triazol-3-yl)methyl)oxetan-3-yl)phenyl)-6-((3-hydroxy-3-methylazetidin-1-yl)methyl)-4-(trifluoromethyl)isoindolin-1-one] | 62 nM | 110 nM | 1.7x
Cn1cnnc1[C@H](F)C1(c2cccc(N3Cc4c(cc(CN5CCC(F)(CO)CC5)cc4C(F)(F)F)C3=O)c2)COC1 [Compound 133, (R)-2-(3-(3-(fluoro(4-methyl-4H-1,2,4-triazol-3-yl)methyl)oxetan-3-yl)phenyl)-6-((4-fluoro-4-(hydroxymethyl)piperidin-1-yl)methyl)-4-(trifluoromethyl)isoindolin-1-one] | 90 nM | 170 nM | 1.9x
CC(C)[C@H]1CN(C)CCN1Cc1cc2c(c(C(F)(F)F)c1)CN(c1cccc([C@]3([C@H](F)c4nncn4C)CCO3)c1)C2=O (single isomer, unassigned) [Compound 262] | 580 nM | 840 nM | (1.4x)
CC[C@H]1CN(C)CCN1Cc1cc2c(c(C(F)(F)F)c1)CN(c1cccc(C3(Cc4nncn4C)CC(F)(F)C3)c1)C2=O [Compound 401, (S)-2-(3-(3,3-difluoro-1-((4-methyl-4H-1,2,4-triazol-3-yl)methyl)cyclobutyl)phenyl)-6-((2-ethyl-4-methylpiperazin-1-yl)methyl)-4-(trifluoromethyl)isoindolin-1-one] | 29 nM | 27 nM | (0.95x)
CC(C)[C@@H]1CN(Cc2cc3c(c(C(F)(F)F)c2)CN(c2cccc(C4([C@@H](F)c5nncn5C)COC4)c2)C3=O)CCN1C [Compound 406, 2-(3-(3-((R)-fluoro(4-methyl-4H-1,2,4-triazol-3-yl)methyl)oxetan-3-yl)phenyl)-6-(((R)-3-isopropyl-4-methylpiperazin-1-yl)methyl)-4-(trifluoromethyl)isoindolin-1-one] | 75 nM | 84 nM | (1.1x)
COCC1CCN(Cc2cc3c(c(C(F)(F)F)c2)CN(c2cccc(C4([C@@H](F)c5nncn5C)COC4)c2)C3=O)CC1 [Compound 145, (R)-2-(3-(3-(fluoro(4-methyl-4H-1,2,4-triazol-3-yl)methyl)oxetan-3-yl)phenyl)-6-((4-(methoxymethyl)piperidin-1-yl)methyl)-4-(trifluoromethyl)isoindolin-1-one] | 130 nM | 180 nM | 1.4x
Cn1cnnc1[C@H](F)C1(c2cccc(N3Cc4c(cc(CN5CCC[C@@H](CO)C5)cc4C(F)(F)F)C3=O)c2)COC1 [Compound 151, 2-(3-(3-((R)-fluoro(4-methyl-4H-1,2,4-triazol-3-yl)methyl)oxetan-3-yl)phenyl)-6-(((R)-3-(hydroxymethyl)piperidin-1-yl)methyl)-4-(trifluoromethyl)isoindolin-1-one] | 61 nM | 85 nM | 1.4x
C[C@@H](NC1(C)CCC1)c1cc2c(c(C(F)(F)F)c1)CN(c1cccc(C3([C@@H](F)c4nncn4C)COC3)c1)C2=O [Compound 247, 2-(3-(3-((R)-fluoro(4-methyl-4H-1,2,4-triazol-3-yl)methyl)oxetan-3-yl)phenyl)-6-((R)-1-((1-methylcyclobutyl)amino)ethyl)-4-(trifluoromethyl)isoindolin-1-one] | 7.6 nM | 11 nM | (1.4x)
Cn1cnnc1[C@@H](F)C1(c2cccc(N3Cc4c(cc(CNCCCF)cc4C(F)(F)F)C3=O)c2)CC(F)(F)C1 [Compound 448, (S)-2-(3-(3,3-difluoro-1-(fluoro(4-methyl-4H-1,2,4-triazol-3-yl)methyl)cyclobutyl)phenyl)-6-(((3-fluoropropyl)amino)methyl)-4-(trifluoromethyl)isoindolin-1-one] | 14 nM | 16 nM | (1.1x)
Cn1cnnc1CC1(c2cc(NCCc3ccncc3)nc(N3Cc4c(cc(CNC5(C)CCC5)cc4C(F)(F)F)C3=O)c2)CCC1 [Compound 321, 2-(4-(1-((4-methyl-4H-1,2,4-triazol-3-yl)methyl)cyclobutyl)-6-((2-(pyridin-4-yl)ethyl)amino)pyridin-2-yl)-6-(((1-methylcyclobutyl)amino)methyl)-4-(trifluoromethyl)isoindolin-1-one] | 18 nM | 23 nM | (1.3x)
C[C@@H](N)c1cc2c(c(C(F)(F)F)c1)CN(c1cccc(C3([C@@H](F)c4nncn4C)COC3)c1)C2=O [Compound 191, 6-((R)-1-aminoethyl)-2-(3-(3-((R)-fluoro(4-methyl-4H-1,2,4-triazol-3-yl)methyl)oxetan-3-yl)phenyl)-4-(trifluoromethyl)isoindolin-1-one] | 35 nM | 52 nM | 1.5x
CC(C)[C@@H]1CN(Cc2cc3c(c(C(F)(F)F)c2)CN(c2cccc(C4([C@@H](F)c5nncn5C)COC4)c2)C3=O)CCN1 [Compound 92] | 20 nM | 24 nM | 1.2x
Cn1cnnc1[C@@H](F)C1(c2cccc(N3Cc4c(cc(CN5CC[C@H](F)C5)cc4C(F)(F)F)C3=O)c2)COC1 [Compound 83, 2-(3-(3-((S)-fluoro(4-methyl-4H-1,2,4-triazol-3-yl)methyl)oxetan-3-yl)phenyl)-6-(((S)-3-fluoropyrrolidin-1-yl)methyl)-4-(trifluoromethyl)isoindolin-1-one] | 210 nM | 640 nM | 3.1x
